Tests used:
[1] = Liquid; for vapor or sublimation pressure: Ebulliometric method (Recirculating still); for mass density: 101 kPa, Vibrating tube method
[2] = xn = mol fraction of the nth substance listed; conditions: 101.33 kPa, Liquid, Vibrating tube method, x2 = 0
[3] = excess molar enthalpy (molar enthalpy of mixing); xn = mol fraction of the nth substance listed; conditions: 298.15 K, 101 kPa, Liquid, isothermal titration calorimeter

c1ccccc1 [benzene]
[1]
Conditions | vapor or sublimation pressure [kPa]
338.15 K | 62.1
348.15 K | 86.4

C1CCCCC1 [cyclohexane]
[1]
Conditions | vapor or sublimation pressure [kPa]
338.15 K | 61.5
348.15 K | 84.7

c1ccncc1 [pyridine]
[1]
Conditions | mass density [kg/m3] | vapor or sublimation pressure [kPa]
298.15 K | 978.01 | –
308.15 K | 967.91 | –
318.15 K | 957.76 | –
328.15 K | 947.56 | –
338.15 K | 937.3 | –
353.15 K | – | 32.3
363.15 K | – | 45.9
373.15 K | – | 63.7

c1ccncc1 [pyridine] + c1cc[nH]c1
[2]
Conditions | mass density [kg/m3]
298.15 K | 978.01
308.15 K | 967.91
318.15 K | 957.76
328.15 K | 947.56
338.15 K | 937.3

c1cc[nH]c1 [pyrrole]
[1]
Conditions | mass density [kg/m3] | vapor or sublimation pressure [kPa]
298.15 K | 965.54 | –
308.15 K | 956.83 | –
318.15 K | 948.03 | –
328.15 K | 939.14 | –
338.15 K | 930.13 | 9.4
348.15 K | – | 14.6
353.15 K | – | 18
358.15 K | – | 21.9
363.15 K | – | 26.8
373.15 K | – | 38.5

c1cc[nH]c1 [pyrrole] + C1CCCCC1
[3]
Conditions | excess molar enthalpy [kJ/mol]
x1 = 0.015 | 0.234
x1 = 0.03 | 0.414
x1 = 0.0451 | 0.548
x1 = 0.0601 | 0.65
x1 = 0.0752 | 0.732
x1 = 0.0905 | 0.804
x1 = 0.1057 | 0.867
x1 = 0.1208 | 0.924
x1 = 0.1358 | 0.973
x1 = 0.1543 | 1.03
x1 = 0.1692 | 1.07
x1 = 0.184 | 1.1
x1 = 0.1989 | 1.14
x1 = 0.2139 | 1.17
x1 = 0.2288 | 1.2
x1 = 0.2437 | 1.22
x1 = 0.2587 | 1.24
x1 = 0.2737 | 1.26
x1 = 0.2887 | 1.28
x1 = 0.3037 | 1.3
x1 = 0.3186 | 1.32
x1 = 0.3337 | 1.34
x1 = 0.3485 | 1.35
x1 = 0.3677 | 1.37
x1 = 0.3829 | 1.38
x1 = 0.3982 | 1.39
x1 = 0.4135 | 1.4
x1 = 0.4287 | 1.41
x1 = 0.444 | 1.42
x1 = 0.4592 | 1.42
x1 = 0.4745 | 1.42
x1 = 0.4898 | 1.43
x1 = 0.505 | 1.43
x1 = 0.5203 | 1.43
x1 = 0.5355 | 1.42
x1 = 0.5507 | 1.42
x1 = 0.566 | 1.42
x1 = 0.5812 | 1.41
x1 = 0.5964 | 1.4
x1 = 0.6116 | 1.39
x1 = 0.6269 | 1.38
x1 = 0.6421 | 1.36
x1 = 0.6573 | 1.34
x1 = 0.6725 | 1.33
x1 = 0.6878 | 1.3
x1 = 0.703 | 1.28
x1 = 0.7182 | 1.25
x1 = 0.731 | 1.21
x1 = 0.7468 | 1.17
x1 = 0.7627 | 1.13
x1 = 0.7786 | 1.08
x1 = 0.7945 | 1.04
x1 = 0.8104 | 0.987
x1 = 0.8263 | 0.932
x1 = 0.8421 | 0.873
x1 = 0.858 | 0.808
x1 = 0.874 | 0.739
x1 = 0.8899 | 0.664
x1 = 0.9058 | 0.583
x1 = 0.9218 | 0.496
x1 = 0.9377 | 0.403
x1 = 0.9537 | 0.304
x1 = 0.9691 | 0.201
x1 = 0.9846 | 0.0929

c1cc[nH]c1 [pyrrole] + CCCCCO
[3]
Conditions | excess molar enthalpy [kJ/mol]
x1 = 0.0374 | 0.0355
x1 = 0.0962 | 0.156
x1 = 0.1388 | 0.269
x1 = 0.1801 | 0.388
x1 = 0.2202 | 0.504
x1 = 0.259 | 0.614
x1 = 0.2967 | 0.716
x1 = 0.3333 | 0.807
x1 = 0.3689 | 0.888
x1 = 0.4034 | 0.958
x1 = 0.437 | 1.02
x1 = 0.4696 | 1.06
x1 = 0.5014 | 1.1
x1 = 0.5323 | 1.13
x1 = 0.5604 | 1.13
x1 = 0.5624 | 1.14
x1 = 0.5804 | 1.14
x1 = 0.5916 | 1.15
x1 = 0.6004 | 1.14
x1 = 0.6202 | 1.15
x1 = 0.6204 | 1.14
x1 = 0.6404 | 1.13
x1 = 0.648 | 1.14
x1 = 0.6604 | 1.12
x1 = 0.6616 | 1.13
x1 = 0.6804 | 1.11
x1 = 0.7004 | 1.08
x1 = 0.7204 | 1.06
x1 = 0.7404 | 1.03
x1 = 0.7604 | 0.987
x1 = 0.7804 | 0.944
x1 = 0.8004 | 0.894
x1 = 0.8204 | 0.838
x1 = 0.8404 | 0.775
x1 = 0.8603 | 0.706
x1 = 0.8803 | 0.629
x1 = 0.9002 | 0.544
x1 = 0.9202 | 0.452
x1 = 0.9401 | 0.351
x1 = 0.9601 | 0.241
x1 = 0.98 | 0.121

c1cc[nH]c1 [pyrrole] + CCCCO
[3]
Conditions | excess molar enthalpy [kJ/mol]
x1 = 0.0262 | 0.019
x1 = 0.0776 | 0.104
x1 = 0.1154 | 0.19
x1 = 0.1526 | 0.284
x1 = 0.189 | 0.381
x1 = 0.2248 | 0.475
x1 = 0.2599 | 0.566
x1 = 0.2944 | 0.65
x1 = 0.3283 | 0.727
x1 = 0.3616 | 0.796
x1 = 0.3943 | 0.857
x1 = 0.4265 | 0.909
x1 = 0.4581 | 0.953
x1 = 0.4891 | 0.987
x1 = 0.5196 | 1.01
x1 = 0.5497 | 1.03
x1 = 0.5703 | 1.03
x1 = 0.5792 | 1.04
x1 = 0.5803 | 1.03
x1 = 0.6003 | 1.03
x1 = 0.6082 | 1.04
x1 = 0.6203 | 1.03
x1 = 0.6225 | 1.04
x1 = 0.6403 | 1.02
x1 = 0.6603 | 1.01
x1 = 0.6803 | 0.994
x1 = 0.7003 | 0.974
x1 = 0.7203 | 0.949
x1 = 0.7403 | 0.919
x1 = 0.7603 | 0.885
x1 = 0.7803 | 0.845
x1 = 0.8002 | 0.8
x1 = 0.8202 | 0.75
x1 = 0.8403 | 0.694
x1 = 0.8603 | 0.631
x1 = 0.8802 | 0.563
x1 = 0.9002 | 0.488
x1 = 0.9201 | 0.407
x1 = 0.9401 | 0.318
x1 = 0.9601 | 0.223
x1 = 0.98 | 0.119

c1cc[nH]c1 [pyrrole] + CCCO
[3]
Conditions | excess molar enthalpy [kJ/mol]
x1 = 0.0299 | 0.0296
x1 = 0.0598 | 0.0602
x1 = 0.0897 | 0.107
x1 = 0.1197 | 0.164
x1 = 0.1497 | 0.229
x1 = 0.1796 | 0.297
x1 = 0.2096 | 0.367
x1 = 0.2396 | 0.436
x1 = 0.2696 | 0.503
x1 = 0.2996 | 0.568
x1 = 0.3296 | 0.627
x1 = 0.3596 | 0.682
x1 = 0.3896 | 0.731
x1 = 0.4197 | 0.773
x1 = 0.4497 | 0.808
x1 = 0.4652 | 0.833
x1 = 0.4797 | 0.836
x1 = 0.4902 | 0.858
x1 = 0.5202 | 0.883
x1 = 0.5502 | 0.9
x1 = 0.5803 | 0.909
x1 = 0.6103 | 0.91
x1 = 0.6403 | 0.903
x1 = 0.6703 | 0.888
x1 = 0.7003 | 0.863
x1 = 0.7303 | 0.829
x1 = 0.7603 | 0.785
x1 = 0.7903 | 0.731
x1 = 0.8203 | 0.665
x1 = 0.8503 | 0.587
x1 = 0.8802 | 0.497
x1 = 0.9101 | 0.394
x1 = 0.9401 | 0.276
x1 = 0.97 | 0.142

Reference: the NIST ThermoML archive (doi:10.1016/j.fluid.2013.10.029)
